From patent US12630796B2, “System, device, and method for single-cell encapsulation and culture” (UNIVERSITY OF MARYLAND, COLLEGE PARK, priority 2020, dated 2026)
Counter-ions that a name gives are not always drawn.

System: 1csc colony cells obtained from MDA-MB-231 cells
Experiment: In vitro cell viability after drug treatment (CCK-8)
Assay type: cell-based, human
Details: 1csc colony cells versus cells from 2Dcells, Ucells and Mcells cultures; 24 hours treatment; FIG. 6A-6B
Description: For 2Dcells culture, human MDA-MB-231, MCF-7, PC-3, and OVCAR-8 cancer cells were cultured in Corning (Lowell, MA, USA) T75 flasks in DMEM, EMEM, F12K, and RPMI-1640 medium supplemented with 10% FBS and 1% penicillin/streptomycin at 37° C. in a humidified 5% CO2 incubator, respectively. For Ucells culture, cells were cultured in Corning (Lowell, MA, USA) 6-well ultralow attachment plate (ULAP) at a density of 20,000 cells ml^−1 in CSC medium consisting of serum-free DMEM/F12 supplemented with 5 μg ml^−1 insulin, 20 ng ml^−1 epidermal growth factor (EGF), 20 ng ml^−1 basic fibroblast growth factor (bFGF), 1×B27 (Invitrogen, Carlsbad, CA, USA), 0.4% (w v^−1) bovine serum albumin, 100 U ml^−1 penicillin, and 100 μg ml^−1 streptomycin. The cell spheroids or aggregates were collected after 7 days for further experiments. For lcsc and Mcells cultures, microcapsules encapsulated with one (for 1csc) or multiple (for Mcells) cells were cultured in the aforementioned CSC medium. To determine viability of cells under 2Dcells culture, cells were transferred into 96-well plates first. […] The cell viability was then evaluated using the CCK-8 cell proliferation reagent per the manufacturer's instructions. Cell viability was calculated as the ratio of the cell number determined for each group with a treatment to that of control group with no treatment.

Compound	resistance of the 1csc colony cells to the drug (cell viability)
CCc1c2c(nc3ccc(OC(=O)N4CCC(N5CCCCC5)CC4)cc13)-c1cc3c(c(=O)n1C2)COC(=O)[C@]3(O)CC [CPT-11, Irinotecan/camptothecin-11]	significantly more resistant
COc1cccc2c1C(=O)c1c(O)c3c(c(O)c1C2=O)C[C@@](O)(C(=O)CO)C[C@@H]3O[C@H]1C[C@H](N)[C@H](O)[C@H](C)O1 [DOX, Doxorubicin hydrochloride]	significantly more resistant
